The results in this text go back to US11945811B2, “Potassium channel inhibitors” (ACESION PHARMA APS, priority 2021, dated 2024).

Each structure is given as a SMILES string. pIC50: −log10 of the molar value.

In this experiment the target is T1, human SK3 channel (hKCa2.3) (Homo sapiens, UniProt Q9UGI6).
T1 construct: expressed in transfected cells
Nature of the experiment: Automated patch clamping (QPatch 16 HT whole-cell recordings). The class given is cell-based. To be noted: HEK-293 cells stably expressing hKCa2.3; currents measured at −80 mV; normalized to N-methyl bicuculline; read-out: IC50 in the Automated patch clamping assay (SK3 channel inhibition). The procedure:
Automated whole cell patch-clamp recordings were performed using a QPatch 16 HT system and single-hole Qplates (Sophion, Denmark) on HEK-293 cells stably expressing the human SK3 channel (hKCa2.3). Cells were cultured and prepared for experiments using normal cell culturing procedures. A total of 4-5 million cells were used per experiment. The Qpatch automatically generates giga sealing, whole-cell formation, compound application and recording of current. hKCa2.3 currents were recorded in symmetrical K^+ solutions. The intracellular/pipette solution contained 154 mM KCl, 10 mM HEPES and 10 mM EGTA. CaCl2 is added to give calculated free concentrations of Ca^2+ of 0.4 μM and MgCl2 is added to give a free concentration of 1 mM. In order to maintain a total [K^+] of 156 mM (corresponding to the concentration in the extracellular ringer) a fixed amount of KOH (15 mM) is added, thereafter pH is adjusted with HCl to pH=7.2. Expected osmolarity: 275 mOsm. Sucrose was added to a final osmolarity around 295 mosm. The extracellular solution consisted of (in mM): CaCl2 0.1, MgCl2 3, KCl 150, HEPES 10 and glucose 10, pH=7.4 adjusted with KOH. Osmolarity between 285-295 mosm. The cells were held at 0 mV and hKCa2.3 currents were elicited by a linear voltage ramp from −80 mV to +80 mV (200 ms in duration) applied every 5th second.
The compound application protocol consisted of 12 recording periods lasting 200 s: 1) Baseline recordings in extracellular solution; 2) Application of the positive control N-methyl bicuculline (100 μM), which is characterized by full efficacy, fast on- and off-rate; 3-4) Wash-out; 5-10) Increasing concentrations of test compound to establish an IC50 value; 11-12) Wash-out; 13) positive control with compound NS8593 (N-[(1R)-1,2,3,4-tetrahydro-1-naphthalenyl]-1H-benzimidazol-2-amine) (1 μM) or with N-methyl bicuculline (100 μM). Data were sampled at 10 kHz, 4th order Bessel filter, cut-off frequency 3 kHz. Currents were compensated for run-down. Potency was quantified as the concentration needed to inhibit half of the SK channel activity and reported as an IC50 value.
All effects of compounds of the present invention as tested were normalized to the observed inhibitory effect of N-methyl bicuculline. Currents were measured at −80 mV.
Background: Patch clamp records ionic current or voltage across a cell membrane.

On to `CC(CO)(Nc1nc2c(Cn3ccoc3=N)cccc2[nH]1)c1ccc(Cl)c(Cl)c1` (single isomer, unassigned) [Example 19a], for which the negative logarithm of the IC50 (pIC50) was over 6.00.

In the case of `Cc1cn(Cc2cccc3[nH]c(NC(C)(CO)c4cccc(C(F)(F)F)c4)nc23)c(=N)o1` (single isomer, unassigned) [Example 24a], the negative-log IC50 (pIC50) is over 4.52.

On to `CC(CO)(Nc1nc2c(Cn3ccoc3=N)cccc2[nH]1)c1cccc(OC(F)(F)F)c1` (single isomer, unassigned) [Example 27b], for which the pIC50 was over 4.52.

For the molecule `CC(CO)(Nc1nc2c(Cn3ccoc3=N)cccc2[nH]1)c1ccc(Cl)c(F)c1` (single isomer, unassigned) [Example 39a, 2-(4-chloro-3-fluorophenyl)-2-({4-[(2-imino-2,3-dihydro-1,3-oxazol-3-yl)methyl]-1H-1,3-benzodiazol-2-yl}amino)propan-1-ol], the pIC50 is over 6.00.

`CC(CO)(Nc1nc2c(Cn3ccoc3=N)cccc2[nH]1)c1ccc(Cl)c(F)c1` (single isomer, unassigned) [Example 39b, 2-(4-chloro-3-fluorophenyl)-2-({4-[(2-imino-2,3-dihydro-1,3-oxazol-3-yl)methyl]-1H-1,3-benzodiazol-2-yl}amino)propan-1-ol]: the pIC50 is over 4.52.

Take `CC(CO)(Nc1nc2c(CNc3ccon3)cccc2[nH]1)c1cccc(Cl)c1F` (single isomer, unassigned) [Example 43a]: the pIC50 is over 4.52.

Consider `CC(CO)(Nc1nc2c(CNc3ccon3)cccc2[nH]1)c1ccc(Cl)c(F)c1` (single isomer, unassigned) [Example 44a], for which the pIC50 is over 4.52.

Take `CC(CO)(Nc1nc2c(Cn3ccoc3=N)cccc2[nH]1)c1cc(F)cc(Cl)c1` (single isomer, unassigned) [Example 45a]: the pIC50 is over 6.00.

For `CC(CO)(Nc1nc2c(Cn3ccoc3=N)cccc2[nH]1)c1cc(Cl)ccc1F` (single isomer, unassigned) [Example 47a], the pIC50 was over 6.00.

Regarding `CC(CO)(Nc1nc2c(Cn3ccoc3=N)cccc2[nH]1)c1cccc(Cl)c1` (single isomer, unassigned; (+)) [Example 3b, (+)-2-(3-chlorophenyl)-2-({4-[(2-imino-2,3-dihydro-1,3-oxazol-3-yl)methyl]-1H-1,3-benzodiazol-2-yl}amino)propan-1-ol], the pIC50 was over 4.52.

For the molecule `CC(CO)(Nc1nc2c(Cn3ccoc3=N)cccc2[nH]1)c1ccc(F)c(Cl)c1` (single isomer, unassigned; (+)) [Example 8b, (+)-2-(3-chloro-4-fluorophenyl)-2-({4-[(2-imino-2,3-dihydro-1,3-oxazol-3-yl)methyl]-1H-1,3-benzodiazol-2-yl}amino)propan-1-ol], the pIC50 was over 4.52.

`Cc1cc(NCc2cccc3[nH]c(NC(C)(CO)c4ccc(F)c(Cl)c4)nc23)no1` (single isomer, unassigned; (+)) [Example 12b, (+)-2-(3-chloro-4-fluorophenyl)-2-((4-(((5-methylisoxazol-3-yl)amino)methyl)-1H-benzo[d]imidazol-2-yl)amino)propan-1-ol]: the pIC50 is over 4.52.

Take `CC(CO)(Nc1nc2c(Cn3ccoc3=N)cccc2[nH]1)c1cccc(C(F)(F)F)c1` (single isomer, unassigned; (+)) [Example 18b, (+)-2-({4-[(2-imino-2,3-dihydro-1,3-oxazol-3-yl)methyl]-1H-1,3-benzodiazol-2-yl}amino)-2-[3-(trifluoromethyl)-phenyl]propan-1-ol]: the negative logarithm of the IC50 (pIC50) was over 4.52.

Take `CC(CO)(Nc1nc2c(Cn3ccoc3=N)cccc2[nH]1)c1ccc(Cl)c(Cl)c1` (single isomer, unassigned; (+)) [Example 19b, (+)-2-(3,4-dichlorophenyl)-2-({4-[(2-imino-2,3-dihydro-1,3-oxazol-3-yl)methyl]-1H-1,3-benzodiazol-2-yl}amino)propan-1-ol]: the negative-log IC50 (pIC50) was over 4.52.

Consider `Cc1cn(Cc2cccc3[nH]c(NC(C)(CO)c4cccc(C(F)(F)F)c4)nc23)c(=N)o1` (single isomer, unassigned; (+)) [Example 24b, (+)-2-({4-[(2-imino-5-methyl-2,3-dihydro-1,3-oxazol-3-yl)methyl]-1H-1,3-benzodiazol-2-yl}amino)-2-[3-(trifluoromethyl)-phenyl]propan-1-ol], for which the pIC50 was over 6.00.

On to `CC(CO)(Nc1nc2c(Cn3ccoc3=N)cccc2[nH]1)c1cccc(OC(F)(F)F)c1` (single isomer, unassigned; (+)) [Example 27a, (+)-2-({4-[(2-imino-2,3-dihydro-1,3-oxazol-3-yl)methyl]-1H-1,3-benzodiazol-2-yl}amino)-2-[3-(trifluoromethoxy)phenyl]propan-1-ol], for which the pIC50 was over 6.00.

For `CC(CO)(Nc1nc2c(Cn3ccoc3=N)cccc2[nH]1)c1cccc(Cl)c1F` (single isomer, unassigned; (+)) [Example 41b, (+)-2-(3-chloro-2-fluorophenyl)-2-({4-[(2-imino-2,3-dihydro-1,3-oxazol-3-yl)methyl]-1H-1,3-benzodiazol-2-yl}amino)propan-1-ol], the pIC50 was over 4.52.

`CC(CO)(Nc1nc2c(CNc3ncco3)cccc2[nH]1)c1cccc(Cl)c1F` (single isomer, unassigned; (+)) [Example 42a, (+)-2-(3-chloro-2-fluorophenyl)-2-[(4-{[(1,3-oxazol-2-yl)amino]methyl}-1H-1,3-benzodiazol-2-yl)amino]propan-1-ol]: the pIC50 is over 4.52.

As for `CC(CO)(Nc1nc2c(Cn3ccoc3=N)cccc2[nH]1)c1cc(F)cc(Cl)c1` (single isomer, unassigned; (+)) [Example 45b, (+)-2-(3-chloro-5-fluorophenyl)-2-({4-[(2-imino-2,3-dihydro-1,3-oxazol-3-yl)methyl]-1H-1,3-benzodiazol-2-yl}amino)propan-1-ol], the pIC50 was over 4.52.

With `CC(CO)(Nc1nc2c(Cn3ccoc3=N)cccc2[nH]1)c1cc(Cl)ccc1F` (single isomer, unassigned; (+)) [Example 47b, (+)-2-(5-chloro-2-fluorophenyl)-2-({4-[(2-imino-2,3-dihydro-1,3-oxazol-3-yl)methyl]-1H-1,3-benzodiazol-2-yl}amino)propan-1-ol], the pIC50 is over 4.52.

Take `CC(CO)(Nc1nc2c(CNc3ncco3)cccc2[nH]1)c1cc(Cl)ccc1F` (single isomer, unassigned; (+)) [Example 48a, (+)-2-(5-chloro-2-fluorophenyl)-2-[(4-{[(1,3-oxazol-2-yl)amino]methyl}-1H-1,3-benzodiazol-2-yl)amino]propan-1-ol]: the pIC50 is over 4.52.

`CC(CO)(Nc1nc2c(CNc3ccon3)cccc2[nH]1)c1cc(Cl)ccc1F` (single isomer, unassigned; (+)) [Example 49a, (+)-2-(5-chloro-2-fluorophenyl)-2-[(4-{[(1,2-oxazol-3-yl)amino]methyl}-1H-1,3-benzodiazol-2-yl)amino]propan-1-ol]: the pIC50 is over 4.52.

`CC(CO)(Nc1nc2c(Cn3ccoc3=N)cccc2[nH]1)c1cccc(Cl)c1` (single isomer, unassigned; (-)) [Example 3a, (−)-2-(3-chlorophenyl)-2-({4-[(2-imino-2,3-dihydro-1,3-oxazol-3-yl)methyl]-1H-1,3-benzodiazol-2-yl}amino)propan-1-ol]: the pIC50 was over 6.00.

By pIC50 is commonly meant −log10 of the IC50, conventionally taken in molar units.
